# Results taken from patent publication US20020045780A1, “Biologically active spermidine analogues, pharmaceutical compositions and methods of treatment” (priority 1997, published 2002).
# Where a name gives a salt, the structure may show the parent alone. Read-outs that look alike come from different tables or passages of the source.
# Assays:
# [1] = system: mice; conditions: cited from earlier work
# [2] = system: L1210 cells; conditions: 48 hours, cited from earlier work; for Put, corresponding tetraamine (in parentheses) / Spd, corresponding tetraamine (in parentheses) / Spm, corresponding tetraamine (in parentheses): % of untreated control; for Analogue, corresponding tetraamine (in parentheses): intracellular amount
# [3] = system: ornithine decarboxylase (ODC); conditions: cited from earlier work; for ODC activity, corresponding tetraamine (in parentheses): L1210, 1 μM at 4 hours
# [4] = target: polyamine transport apparatus; conditions: cited from earlier work; for Ki: inhibition of spermidine transport, L1210, read-out: Ki, corresponding tetraamine (in parentheses)
# [5] = system: spermidine/spermine acetyltransferase (SSAT); conditions: L1210, 2 μM at 48 hours (tetraamine analogues); cited from earlier work
# [6] = Acute toxicity in mice (single i.p. dose); assay type: in vivo; conditions: female, CD-1, mouse, in vivo, ip
# Procedure: (§1) In the current study, the acute toxicity of six analogues and the chronic toxicity of two triamines were measured (Table 7). The value of all polyamine LD50s are shown in both mg/kg and mmol/kg for comparison. […] The animals were scored two hours after administration of the drug. It is clear that the acute LD50s for triamine analogues are approximately twice the acute LD50s for the corresponding tetraamine analogues.
# (§2) Acute and chronic toxicities were assessed in 10-12 week old CD-1 female mice from Harlan Sprague-Dawley. For acute toxicities, the polyamine analogues were administered in a single i.p. injection to groups of five or six animals at each dose. The animals were scored two hours after administration of the dose. All survivors were further observed for 10 days to assess late onset of toxicity from the single acute dose. In the chronic toxicity regimen, mice were administered polyamine analogue in three i.p. doses per day (t.i.d.) for six days, for a total of eighteen doses per animal. Appetite, weight and overall appearance were monitored daily. […] At least three test groups of 5-6 animals each, representing three different dose levels, were evaluated for each analogue tested. These dose levels were chosen so that at least two groups presented with lethalities, one with a high fraction of lethalities (>0.50, but <1.00).
# [7] = system: mice; assay: Acute toxicity in mice (single i.p. dose); assay type: in vivo
# Procedure: as §1, §2
# [8] = system: L1210 cells; conditions: cited from earlier work
# [9] = system: S-adenosylmethionine decarboxylase (AdoMetDC); conditions: cited from earlier work; for AdoMetDC activity, corresponding tetraamine (in parentheses): L1210, 1 μM at 6 hours
# [10] = system: L1210 cells; assay: Metabolic transformation of polyamine analogues by L1210 cells; assay type: in vitro ADME, murine
# Procedure: The cells were washed twice with cold RPMI-1640, and the pellet was treated with 0.6 N HClO4 (1 ml/10^7 cells). Polyamine contents of the perchloric acid extracts were quantitated by HPLC of the DANSYL derivatives [Bergeron et al, J. Med. Chem., Vol. 37, supra].
# [11] = system: SSAT; conditions: MALME-3 cells; cited from earlier work
# [12] = mice, single dose i.p., scored two hours after dose, read-out: Acute LD50
# [13] = L1210, 48 hour exposure, read-out: IC50 48 hour, corresponding tetraamine (in parentheses)
# [14] = L1210, 96 hour exposure, read-out: IC50 96 hour, corresponding tetraamine (in parentheses)
# [15] = female, CD-1, mouse, in vivo, 600 mg/kg
compound,measurement,setting,value
"CCNCCCCNCCCCCNCCCCNCC [DE(4,5,4)]",Chronic LD50 (tetraamines),"[1]; mice, i.p. t.i.d. × 6 days",0.104 mmol/kg/day
same,Chronic LD50 (tetraamines),"[1]; mouse, in vivo, ip",48 mg/kg-day
same,"Put, corresponding tetraamine (in parentheses)",[2]; 0.3 μM,(44) %
same,"Spd, corresponding tetraamine (in parentheses)",[2]; 0.3 μM,(61) %
same,"Spm, corresponding tetraamine (in parentheses)",[2]; 0.3 μM,(70) %
same,"Analogue, corresponding tetraamine (in parentheses)",[2]; 0.3 μM,(0.26) nmol/10^6 cells
same,"ODC activity, corresponding tetraamine (in parentheses)",[3],20% of untreated control
same,Ki,[4],6 µM
same,"SSAT activity, corresponding tetraamine (in parentheses)",[5],120 (120) percent of untreated control
same,LD50 at 2 h,[6]; [12],638 µmol/kg
same,Acute LD50,"[7]; mice, single dose i.p., scored two hours after dose, hydrochloride salts",285 mg/kg
same,IC50,[8]; [13],0.3 µM
same,IC50,[8]; [14],0.035 µM
"CCNCCCCCNCCCCNCCCCCNCC.Cl.Cl.Cl.Cl [DE(5,4,5), 3,9,14,20-Tetraazadocosane Tetrahydrochloride]",Chronic LD50 (tetraamines),"[1]; mice, i.p. t.i.d. × 6 days, hydrochloride salts",36 mg/kg-day
same,Chronic LD50 (tetraamines),"[1]; mice, i.p. t.i.d. × 6 days",0.078 mmol/kg/day
same,"Put, corresponding tetraamine (in parentheses)",[2]; 0.75 μM,(0) %
same,"Spd, corresponding tetraamine (in parentheses)",[2]; 0.75 μM,(10) %
same,"Spm, corresponding tetraamine (in parentheses)",[2]; 0.75 μM,(58) %
same,"Analogue, corresponding tetraamine (in parentheses)",[2]; 0.75 μM,(1.48) nmol/10^6 cells
same,"ODC activity, corresponding tetraamine (in parentheses)",[3],19% of untreated control
same,Ki,[4],16 µM
same,"SSAT activity, corresponding tetraamine (in parentheses)",[5],190% of untreated control
same,"AdoMetDC activity, corresponding tetraamine (in parentheses)",[9],54% of untreated control
same,LD50 at 2 h,"[6]; mice, single dose i.p., scored two hours after dose, hydrochloride salts, read-out: Acute LD50",195 mg/kg
same,LD50 at 2 h,[6]; [12],424 µmol/kg
same,IC50,[8]; [13],0.4 µM
same,IC50,[8]; [14],0.03 µM
"CCNCCCCNCCCCNCCCCNCC [DEHSPM, N^1,N^14-diethylhomospermine]","Put, corresponding tetraamine (in parentheses)",[2]; 10 μM,(0) %
same,"Spd, corresponding tetraamine (in parentheses)",[2]; 10 μM,(0) %
same,"Spm, corresponding tetraamine (in parentheses)",[2]; 10 μM,(61) %
same,"Analogue, corresponding tetraamine (in parentheses)",[2]; 10 μM,(2.94) nmol/10^6 cells
same,"ODC activity, corresponding tetraamine (in parentheses)",[3],7% of untreated control
same,Ki,[4],1.4 µM
same,"SSAT activity, corresponding tetraamine (in parentheses)",[5],110% of untreated control
same,N-Monodealkylation (result in words),"[10]; 48 hours, 100 μM analogue",no N-deethylation
same,Parent drug as % of total drug in the cell,"[10]; 48 hours, 100 μM analogue",100%
same,Parent drug in L1210 cells,"[10]; 48 hours, 100 μM analogue",4215 pmols/10^6
same,SSAT up-regulation,[11],30 fold
same,IC50,[8]; [13],0.2 µM
same,IC50,[8]; [14],0.07 µM
"CCNCCCNCCCNCCCNCC [DENSPM, N^1,N^11-diethylnorspermine]","Put, corresponding tetraamine (in parentheses)",[2]; 10 μM,(30) %
same,"Spd, corresponding tetraamine (in parentheses)",[2]; 10 μM,(14) %
same,"Spm, corresponding tetraamine (in parentheses)",[2]; 10 μM,(31) %
same,"Analogue, corresponding tetraamine (in parentheses)",[2]; 10 μM,(1.59) nmol/10^6 cells
same,"Analogue, corresponding tetraamine (in parentheses)",[2]; 100 μM,(2.44) nmol/10^6 cells
same,Ki,[4],17 µM
same,Ki relative to those of DESPM and DEHSPM,[4]; polyamine transport system,over 10 times
same,"SSAT activity, corresponding tetraamine (in parentheses)",[5],1500% of untreated control
same,"AdoMetDC activity, corresponding tetraamine (in parentheses)",[9],42% of untreated control
same,Parent drug as % of total drug in the cell,"[10]; 48 hours, 500 μM analogue",95.3%
same,Parent drug in L1210 cells,"[10]; 48 hours, 500 μM analogue",2440 pmols/10^6
same,SSAT up-regulation,[11],1200 fold
same,IC50,[8]; [13],> 100 µM
same,IC50,[8]; [14],2 µM
"CCNCCCNCCCCNCCCNCC [DESPM, N^1,N^12-diethylspermine]",Time at which reduction in ODC activity plateaued,[3]; previous studies,4 h
same,Ki,[4],1.6 µM
same,"SSAT activity, corresponding tetraamine (in parentheses)",[5],460% of untreated control
same,"AdoMetDC activity, corresponding tetraamine (in parentheses)",[9],28% of untreated control
same,Time at which reduction in AdoMetDC activity plateaued,[9]; previous studies,6 h
same,LD50 at 2 h,[6],842 µmol/kg
same,Animals died within seven days,[7]; [15],5/5
same,Death within the initial 2 hours,[7]; [15],no death
same,SSAT up-regulation,[11],250 fold
same,IC50,[8]; [13],30 µM
same,IC50,[8]; [14],0.18 µM
CNCCCCNCCCCNCCCCNC [DMHSPM],"Put, corresponding tetraamine (in parentheses)",[2]; 100 μM,(0) %
same,"Spd, corresponding tetraamine (in parentheses)",[2]; 100 μM,(0) %
same,"Spm, corresponding tetraamine (in parentheses)",[2]; 100 μM,(30) %
same,"Put, corresponding tetraamine (in parentheses)",[2]; 500 μM,(0) %
same,"Spd, corresponding tetraamine (in parentheses)",[2]; 500 μM,(0) %
same,"Spm, corresponding tetraamine (in parentheses)",[2]; 500 μM,(27) %
same,"Analogue, corresponding tetraamine (in parentheses)",[2]; 100 μM,(1.49) nmol/10^6 cells
same,"Analogue, corresponding tetraamine (in parentheses)",[2]; 500 μM,(1.03) nmol/10^6 cells
same,"ODC activity, corresponding tetraamine (in parentheses)",[3],4% of untreated control
same,Ki,[4],0.97 µM
same,"SSAT activity, corresponding tetraamine (in parentheses)",[5],140% of untreated control
same,"AdoMetDC activity, corresponding tetraamine (in parentheses)",[9],45% of untreated control
same,N-dealkylation (result in words),"[10]; L1210 cells, data not shown, concentration not given",no evidence of N-dealkylation
same,IC50,[8]; [13],> 100 µM
same,IC50,[8]; [14],0.32 µM
"CCCNCCCNCCCNCCCNCCC [DPNSPM, N^1,N^11-Dipropylnorspermine Tetrahydrochloride]","Put, corresponding tetraamine (in parentheses)",[2]; 100 μM,(61) %
same,"Spd, corresponding tetraamine (in parentheses)",[2]; 100 μM,(35) %
same,"Spm, corresponding tetraamine (in parentheses)",[2]; 100 μM,(77) %
same,"Put, corresponding tetraamine (in parentheses)",[2]; 500 μM,(0) %
same,"Spd, corresponding tetraamine (in parentheses)",[2]; 500 μM,(19) %
same,"Spm, corresponding tetraamine (in parentheses)",[2]; 500 μM,(56) %
same,"Analogue, corresponding tetraamine (in parentheses)",[2]; 100 μM,(0.89) nmol/10^6 cells
same,"Analogue, corresponding tetraamine (in parentheses)",[2]; 500 μM,(1.28) nmol/10^6 cells
same,"ODC activity, corresponding tetraamine (in parentheses)",[3],79% of untreated control
same,Ki,[4],11 µM
same,"SSAT activity, corresponding tetraamine (in parentheses)",[5],460% of untreated control
same,"AdoMetDC activity, corresponding tetraamine (in parentheses)",[9],70% of untreated control
same,Parent drug as % of total drug in the cell,"[10]; 48 hours, 100 μM analogue",78.2%
same,Parent drug in L1210 cells,"[10]; 48 hours, 100 μM analogue",893 pmols/10^6
same,IC50,[8]; [13],> 100 µM
same,IC50,[8]; [14],18 µM
CCCNCCCNCCCCNCCCNCCC [DPSPM],"Put, corresponding tetraamine (in parentheses)",[2]; 15 μM,(0) %
same,"Analogue, corresponding tetraamine (in parentheses)",[2]; 3 μM,(1.12) nmol/10^6 cells
same,"Analogue, corresponding tetraamine (in parentheses)",[2]; 15 μM,(1.09) nmol/10^6 cells
same,"ODC activity, corresponding tetraamine (in parentheses)",[3],52% of untreated control
same,Ki,[4],2.3 µM
same,"SSAT activity, corresponding tetraamine (in parentheses)",[5],500% of untreated control
same,"AdoMetDC activity, corresponding tetraamine (in parentheses)",[9],72% of untreated control
same,Parent drug as % of total drug in the cell,"[10]; 48 hours, 15 μM analogue",79.0%
same,Parent drug in L1210 cells,"[10]; 48 hours, 15 μM analogue",1568 pmols/10^6
same,IC50,[8]; [13],3 µM
same,IC50,[8]; [14],0.2 µM
